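These data come from cells grown in 96-well plates and exposed to compound for 48 hours at five concentrations. GI50 is the concentration that inhibits growth by half.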 The source made the active and inactive calls. No stated cut-off is given here; in the data, active = GI50 up to about 1.1 µM and inactive = higher.
Legend:
Experiment in all cases: NCI anticancer screen, dose series, 48 h
NCI-H226 = tested on: NCI-H226
OVCAR-3 = tested on: OVCAR-3
UACC-257 = tested on: UACC-257
ACHN = tested on: ACHN
MOLT-4 = tested on: MOLT-4
SNB-75 = tested on: SNB-75
HT-29 = tested on: HT-29
KM12 = tested on: KM12
BT-549 = tested on: BT-549
RPMI-8226 = tested on: RPMI-8226
COLO 205 = tested on: COLO 205
LOX IMVI = tested on: LOX IMVI
NCI-H460 = tested on: NCI-H460
SK-OV-3 = tested on: SK-OV-3
K562 = tested on: K562
786-0 = tested on: 786-0
EKVX = tested on: EKVX
IGROV-1 = tested on: IGROV-1
HCC 2998 = tested on: HCC 2998
U-251 = tested on: U-251

Measured: GI50

COc1cnc2cc(C(=O)O)c3c([N+](=O)[O-])cccc3c2c1
inactive: NCI-H226 > 100 µM | OVCAR-3 > 100 µM | UACC-257 > 100 µM | ACHN > 100 µM | MOLT-4 > 100 µM | SNB-75 > 100 µM | HT-29 > 100 µM | KM12 > 100 µM | BT-549 > 100 µM | RPMI-8226 > 100 µM | COLO 205 > 100 µM | LOX IMVI > 100 µM | NCI-H460 > 100 µM | SK-OV-3 > 100 µM | K562 > 100 µM | 786-0 > 100 µM | EKVX > 100 µM | IGROV-1 > 100 µM | HCC 2998 > 100 µM | U-251 > 100 µM

C[N+](C)(C)CC1CCCCCCCCCCC1=O (stereo not given)
inactive: NCI-H226 > 100 µM | OVCAR-3 > 100 µM | UACC-257 > 100 µM | ACHN > 100 µM | MOLT-4 > 100 µM | SNB-75 > 100 µM | HT-29 > 100 µM | KM12 > 100 µM | BT-549 > 100 µM | RPMI-8226 > 100 µM | COLO 205 > 100 µM | LOX IMVI > 100 µM | NCI-H460 > 100 µM | SK-OV-3 > 100 µM | K562 > 100 µM | 786-0 > 100 µM | EKVX > 100 µM | IGROV-1 > 100 µM | HCC 2998 > 100 µM | U-251 > 100 µM

COc1cc2c(cc1OCc1ccccc1)NC(=O)[C@@H]1C[C@@H](O)CN1C2=O
inactive: NCI-H226 > 100 µM | OVCAR-3 > 100 µM | UACC-257 > 100 µM | ACHN > 100 µM | MOLT-4 > 100 µM | SNB-75 35.6 µM | HT-29 > 100 µM | KM12 > 100 µM | BT-549 > 100 µM | RPMI-8226 > 100 µM | COLO 205 > 100 µM | LOX IMVI > 100 µM | NCI-H460 > 100 µM | SK-OV-3 > 100 µM | K562 > 100 µM | 786-0 > 100 µM | EKVX > 100 µM | IGROV-1 > 100 µM | HCC 2998 > 100 µM | U-251 > 100 µM

COc1cc(NCCC2CCCCN2)c2ncccc2c1 (stereo not given)
inactive: NCI-H226 > 63.8 µM | OVCAR-3 4.63 µM | UACC-257 19.4 µM | ACHN > 100 µM | MOLT-4 7.11 µM | SNB-75 60.3 µM | HT-29 41.7 µM | KM12 60.4 µM | BT-549 > 100 µM | RPMI-8226 > 48.3 µM | COLO 205 13.5 µM | LOX IMVI 52.2 µM | NCI-H460 39.7 µM | SK-OV-3 > 100 µM | K562 > 44.2 µM | 786-0 > 82 µM | EKVX > 100 µM | IGROV-1 8.87 µM | HCC 2998 16.4 µM | U-251 56.4 µM
